{
  "source": "patent EP0105692B1",
  "about": "“6-H-dibenz(b,e)(1,4)oxathiepin derivatives and their preparation” (MERCK FROSST CANADA INC., priority 1982, dated 1984)",
  "key": {"[1]": {"test_system": "arachidonic acid induced bronchoconstriction", "assay": "Arachidonic acid induced bronchoconstriction and hypotension in the anaesthetized dog", "type": "in vivo", "conditions": "intraduodenal administration"}, "[2]": {"test_system": "PGEA-induced bronchoconstriction (R2)", "assay": "Inhibition of PGEA-induced bronchoconstriction in the guinea pig in vivo", "conditions": "Cavia porcellus, IV injection"}},
  "data": [
    {"compound": "O=S1(=O)c2ccccc2COc2ccc(CO)cc21", "note": "[Example 13, 2-Hydroxymethy!-6H-dibenz[b,e][1,4]oxathiepin-11,11-dioxide]", "values": [
      {"measurement": "inhibition of arachidonic acid induced bronchoconstriction", "setting": "[1]", "result": "inhibited"},
      {"measurement": "inhibition of arachidonic acid induced hypotension", "setting": "[1]", "result": "not"},
      {"measurement": "ED50", "setting": "[2]", "result": 10.5, "unit": "mg/kg"}
    ]}
  ]
}
